Measurements reported in US8759295B2, “Peptide-peptidase inhibitor conjugates and methods of using same” (Amylin Pharmaceuticals, LLC, priority 2006, dated 2014).
Starred links: 1 amine or outer side, 2 acyl side, 3 side chain; linkers in the order of their positions; H or OH if unused. Non-standard residues stand in square brackets, D forms with d. No end group written: not given here. *: point of attachment. Pyrrolidine(2S-CN) = N#C[C@@H]1CCCN1*; εLys = N[C@@H](CCCCN[*:1])C(=O)[*:2]; pGlu = O=C1CC[C@@H](C(=O)O)N1; AEEA = NCCOCCOCC(=O)O; βAla = NCCC(=O)O

Assays:
[1] = target: T1, human GIP receptor (HEK-GIPR membranes) (Homo sapiens, UniProt P48546); assay: GIP receptor binding displacement assay (RBA); conditions: 10 nM conjugate, 30 pM 125I-GIP; for inhibition at 0.01 µM: read-out: GIP RBA % inhibition at 10 nM
T1 construct: expressed in transfected cells
T1 sequence (P48546 22-466): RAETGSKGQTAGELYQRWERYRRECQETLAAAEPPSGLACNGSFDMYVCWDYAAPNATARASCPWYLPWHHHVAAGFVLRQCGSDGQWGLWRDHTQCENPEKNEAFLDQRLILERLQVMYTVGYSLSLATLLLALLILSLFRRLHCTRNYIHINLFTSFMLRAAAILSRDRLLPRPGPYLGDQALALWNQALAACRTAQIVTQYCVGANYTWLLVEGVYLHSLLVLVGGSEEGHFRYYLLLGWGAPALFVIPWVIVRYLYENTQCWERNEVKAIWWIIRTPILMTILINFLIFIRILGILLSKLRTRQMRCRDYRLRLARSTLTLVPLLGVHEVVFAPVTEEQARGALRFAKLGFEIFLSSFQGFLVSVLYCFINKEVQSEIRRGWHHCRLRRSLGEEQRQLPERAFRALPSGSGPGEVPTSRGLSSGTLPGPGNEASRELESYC
Experimental: Membrane fractions were prepared from confluent cell cultures of HEK-GIPR, snap frozen, and stored at −80° C. until use. […] Reactions were allowed to proceed to equilibrium for 90 minutes at room temperature with constant shaking. The reaction mixtures were then filtered through 96-well glass fiber filter plates separating bound and unbound fractions of radioligand.

NIH/Swiss mice = assay: Oral glucose tolerance test (OGTT), glucose lowering; conditions: 30 nM/kg
Recombinant DPP-IV = Recombinant DPP-IV (Homo sapiens, UniProt P27487); assay: DPP-IV inhibition assay with chromogenic substrate; type: biochemical; design: purchased Chemicon International, Inc., Temecula, Calif; conditions: mean SEM of at least three determinations
Experimental: The reactions were initiated by adding 1 μl DPP-IV enzyme (0.05 mU) into each well and the absorbance at 410 nm was measured with 20-sec intervals over a 30-min period using a SpectraMax plate reader (Molecular Devices, Corp., Sunnyvale, Calif.). The velocities of each reaction at different inhibitor concentrations were calculated and the reciprocal velocities were plotted against inhibitor concentrations in Dixon graphs. The IC50 values of reaction velocities were calculated through fitting the plots with linear equation.
The IC50 (nM) values in Table 5 are expressed as the mean SEM of at least three independent determinations.

Sequence of Recombinant DPP-IV (P27487 whole entry, species assumed): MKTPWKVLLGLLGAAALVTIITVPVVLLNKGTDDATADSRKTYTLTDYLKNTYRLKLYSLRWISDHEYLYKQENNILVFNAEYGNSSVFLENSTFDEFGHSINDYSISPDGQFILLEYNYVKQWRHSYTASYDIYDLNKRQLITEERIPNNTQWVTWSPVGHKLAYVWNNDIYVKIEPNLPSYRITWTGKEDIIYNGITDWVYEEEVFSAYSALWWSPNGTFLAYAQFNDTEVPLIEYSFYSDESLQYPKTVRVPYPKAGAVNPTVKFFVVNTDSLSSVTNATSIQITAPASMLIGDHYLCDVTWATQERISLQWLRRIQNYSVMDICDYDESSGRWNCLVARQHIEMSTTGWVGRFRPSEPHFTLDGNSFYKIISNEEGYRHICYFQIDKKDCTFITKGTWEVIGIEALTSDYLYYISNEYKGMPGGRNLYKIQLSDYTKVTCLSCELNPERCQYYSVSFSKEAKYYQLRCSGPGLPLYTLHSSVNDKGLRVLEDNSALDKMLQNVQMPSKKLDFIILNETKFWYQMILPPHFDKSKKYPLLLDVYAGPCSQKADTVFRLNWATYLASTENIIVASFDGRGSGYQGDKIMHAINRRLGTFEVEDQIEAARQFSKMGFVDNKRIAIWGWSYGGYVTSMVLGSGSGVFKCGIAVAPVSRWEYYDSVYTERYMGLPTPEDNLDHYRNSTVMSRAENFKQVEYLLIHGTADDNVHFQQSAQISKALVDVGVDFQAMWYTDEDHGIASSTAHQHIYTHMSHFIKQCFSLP

Row | Compound | inhibition at 0.01 µM [1] [%] | OGTT % maximal decrease (NIH/Swiss mice) | IC50 (Recombinant DPP-IV) [nM] | GIP RBA % inhibition at 10 nM [1] [%]
1 | CC[C@H](C)[C@H](NC(=O)[C@H](CO)NC(=O)[C@H](Cc1ccc(O)cc1)NC(=O)[C@H](CC(=O)O)NC(=O)[C@H](CO)NC(=O)[C@@H](NC(=O)[C@H](Cc1ccccc1)NC(=O)[C@@H](NC(=O)CNC(=O)[C@H](CCC(=O)O)NC(=O)[C@H](C)NC(=O)[C@@H](N)Cc1ccc(O)cc1)[C@@H](C)O)[C@@H](C)CC)C(=O)N[C@@H](C)C(=O)N[C@@H](CCSC)C(=O)N[C@@H](CC(=O)O)C(=O)N[C@@H](CCCCN)C(=O)N[C@H](C(=O)N[C@@H](Cc1c[nH]cn1)C(=O)N[C@@H](CCC(N)=O)C(=O)N[C@@H](CCC(N)=O)C(=O)N[C@@H](CC(=O)O)C(=O)N[C@@H](Cc1ccccc1)C(=O)N[C@H](C(=O)N[C@@H](CC(N)=O)C(=O)N[C@@H](Cc1c[nH]c2ccccc12)C(=O)N[C@@H](CC(C)C)C(=O)N[C@@H](CC(C)C)C(=O)N[C@@H](C)C(=O)N[C@@H](CCC(N)=O)C(=O)N[C@@H](CCCCN)C(=O)NCCOCCOCC(=O)NCCOCCOCC(=O)NCCCC[C@H](N)C(=O)N1CCC[C@H]1C#N)C(C)C)[C@@H](C)CC [GIP(1-30)-Ado-Ado-Lys-N-ε-(2-(S)-cyano pyrrolidyl)] | 97 | −17% | – | –
2 | CC[C@H](C)[C@H](NC(=O)[C@H](CO)NC(=O)[C@H](Cc1ccc(O)cc1)NC(=O)[C@H](CC(=O)O)NC(=O)[C@H](CO)NC(=O)[C@@H](NC(=O)[C@H](Cc1ccccc1)NC(=O)[C@@H](NC(=O)CNC(=O)[C@H](CCC(=O)O)NC(=O)[C@H](C)NC(=O)[C@@H](N)Cc1ccc(O)cc1)[C@@H](C)O)[C@@H](C)CC)C(=O)N[C@@H](C)C(=O)N[C@@H](CCSC)C(=O)N[C@@H](CC(=O)O)C(=O)N[C@@H](CCCCN)C(=O)N[C@H](C(=O)N[C@@H](Cc1c[nH]cn1)C(=O)N[C@@H](CCC(N)=O)C(=O)N[C@@H](CCC(N)=O)C(=O)N[C@@H](CC(=O)O)C(=O)N[C@@H](Cc1ccccc1)C(=O)N[C@H](C(=O)N[C@@H](CC(N)=O)C(=O)N[C@@H](Cc1c[nH]c2ccccc12)C(=O)N[C@@H](CC(C)C)C(=O)N[C@@H](CC(C)C)C(=O)N[C@@H](C)C(=O)N[C@@H](CCC(N)=O)C(=O)N[C@@H](CCCCN)C(=O)NCCOCCOCC(=O)NCCCC[C@H](N)C(=O)N1CCC[C@H]1C#N)C(C)C)[C@@H](C)CC [GIP(1-30)-Ado-Lys-N-ε-(2-(S)-cyano pyrrolidyl)] | 99 | – | 98 ± 5 | –
3 | CC[C@H](C)[C@H](NC(=O)[C@H](CO)NC(=O)[C@H](Cc1ccc(O)cc1)NC(=O)[C@H](CC(=O)O)NC(=O)[C@H](CO)NC(=O)[C@@H](NC(=O)[C@H](Cc1ccccc1)NC(=O)[C@@H](NC(=O)CNC(=O)[C@H](CCC(=O)O)NC(=O)[C@H](C)NC(=O)[C@@H](N)Cc1ccc(O)cc1)[C@@H](C)O)[C@@H](C)CC)C(=O)N[C@@H](C)C(=O)N[C@@H](CCSC)C(=O)N[C@@H](CC(=O)O)C(=O)N[C@@H](CCCCN)C(=O)N[C@H](C(=O)N[C@@H](Cc1c[nH]cn1)C(=O)N[C@@H](CCC(N)=O)C(=O)N[C@@H](CCC(N)=O)C(=O)N[C@@H](CC(=O)O)C(=O)N[C@@H](Cc1ccccc1)C(=O)N[C@H](C(=O)N[C@@H](CC(N)=O)C(=O)N[C@@H](Cc1c[nH]c2ccccc12)C(=O)N[C@@H](CC(C)C)C(=O)N[C@@H](CC(C)C)C(=O)N[C@@H](C)C(=O)N[C@@H](CCC(N)=O)C(=O)N[C@@H](CCCCN)C(=O)N1CCC[C@H]1C(=O)N[C@@H](CO)C(=O)N[C@@H](CO)C(=O)NCC(=O)N[C@@H](C)C(=O)N1CCC[C@H]1C(=O)N1CCC[C@H]1C(=O)N1CCC[C@H]1C(=O)N[C@@H](CO)C(=O)NCCOCCOCC(=O)NCCOCCOCC(=O)NCCCC[C@H](N)C(=O)N1CCC[C@H]1C#N)C(C)C)[C@@H](C)CC [GIP(1-30)-exendin-4(31-39)-Ado-Ado-Lys-N-ε-(2-(S)-cyano pyrrolidyl)] | – | −22% | – | –
4 | CC[C@H](C)[C@H](NC(=O)[C@H](CO)NC(=O)[C@H](Cc1ccc(O)cc1)NC(=O)[C@H](CC(=O)O)NC(=O)[C@H](CO)NC(=O)[C@@H](NC(=O)[C@H](Cc1ccccc1)NC(=O)[C@@H](NC(=O)CNC(=O)[C@H](CCC(=O)O)NC(=O)[C@H](C)NC(=O)[C@@H](N)Cc1ccc(O)cc1)[C@@H](C)O)[C@@H](C)CC)C(=O)N[C@@H](C)C(=O)N[C@@H](CCSC)C(=O)N[C@@H](CC(=O)O)C(=O)N[C@@H](CCCCN)C(=O)N[C@H](C(=O)N[C@@H](Cc1c[nH]cn1)C(=O)N[C@@H](CCC(N)=O)C(=O)N[C@@H](CCC(N)=O)C(=O)N[C@@H](CC(=O)O)C(=O)N[C@@H](Cc1ccccc1)C(=O)N[C@H](C(=O)N[C@@H](CC(N)=O)C(=O)N[C@@H](Cc1c[nH]c2ccccc12)C(=O)N[C@@H](CC(C)C)C(=O)N[C@@H](CC(C)C)C(=O)N[C@@H](C)C(=O)N[C@@H](CCC(N)=O)C(=O)N[C@@H](CCCCNC(=O)COCCOCCNC(=O)CC[C@H](N)C(=O)N1CCC[C@H]1C#N)C(N)=O)C(C)C)[C@@H](C)CC [Lys^30N-ε-(Ado-(γ-L-Glu-2-(S)-cyanopyrrolidyl)) GIP(1-30)] | 33 | – | 49 ± 6 | –
5 | CC[C@H](C)[C@H](NC(=O)[C@H](CO)NC(=O)[C@H](Cc1ccc(O)cc1)NC(=O)[C@H](CC(=O)O)NC(=O)[C@H](CO)NC(=O)[C@@H](NC(=O)[C@H](Cc1ccccc1)NC(=O)[C@@H](NC(=O)CNC(=O)[C@H](CCC(=O)O)NC(=O)[C@H](C)NC(=O)[C@H](Cc1ccc(O)cc1)NC(=O)COCCOCCNC(=O)COCCOCCNC(=O)CC[C@H](N)C(=O)N1CCC[C@H]1C#N)[C@@H](C)O)[C@@H](C)CC)C(=O)N[C@@H](C)C(=O)N[C@@H](CCSC)C(=O)N[C@@H](CC(=O)O)C(=O)N[C@@H](CCCCN)C(=O)N[C@H](C(=O)N[C@@H](Cc1c[nH]cn1)C(=O)N[C@@H](CCC(N)=O)C(=O)N[C@@H](CCC(N)=O)C(=O)N[C@@H](CC(=O)O)C(=O)N[C@@H](Cc1ccccc1)C(=O)N[C@H](C(=O)N[C@@H](CC(N)=O)C(=O)N[C@@H](Cc1c[nH]c2ccccc12)C(=O)N[C@@H](CC(C)C)C(=O)N[C@@H](CC(C)C)C(=O)N[C@@H](C)C(=O)N[C@@H](CCC(N)=O)C(=O)N[C@@H](CCCCN)C(=O)N1CCC[C@H]1C(=O)N[C@@H](CO)C(=O)N[C@@H](CO)C(=O)NCC(=O)N[C@@H](C)C(=O)N1CCC[C@H]1C(=O)N1CCC[C@H]1C(=O)N1CCC[C@H]1C(=O)N[C@@H](CO)C(=O)O)C(C)C)[C@@H](C)CC [N-(γ-L-Glu-2-(S)-cyanopyrrolidyl)-Ado-Ado) GIP(1-30)-exendin-4(31-39)] | – | – | 110 ± 2 | –
6 | CC[C@H](C)[C@H](NC(=O)[C@H](CO)NC(=O)[C@H](Cc1ccc(O)cc1)NC(=O)[C@H](CC(=O)O)NC(=O)[C@H](CO)NC(=O)[C@@H](NC(=O)[C@H](Cc1ccccc1)NC(=O)[C@@H](NC(=O)CNC(=O)[C@H](CCC(=O)O)NC(=O)[C@@H](C)NC(=O)[C@@H](N)Cc1ccc(O)cc1)[C@@H](C)O)[C@@H](C)CC)C(=O)N[C@@H](C)C(=O)N[C@@H](CCSC)C(=O)N[C@@H](CC(=O)O)C(=O)N[C@@H](CCCCN)C(=O)N[C@H](C(=O)N[C@@H](Cc1c[nH]cn1)C(=O)N[C@@H](CCC(N)=O)C(=O)N[C@@H](CCC(N)=O)C(=O)N[C@@H](CC(=O)O)C(=O)N[C@@H](Cc1ccccc1)C(=O)N[C@H](C(=O)N[C@@H](CC(N)=O)C(=O)N[C@@H](Cc1c[nH]c2ccccc12)C(=O)N[C@@H](CC(C)C)C(=O)N[C@@H](CC(C)C)C(=O)N[C@@H](C)C(=O)N[C@@H](CCC(N)=O)C(=O)N[C@@H](CCCCN)C(=O)N1CCC[C@H]1C(=O)N[C@@H](CO)C(=O)N[C@@H](CO)C(=O)NCC(=O)N[C@@H](C)C(=O)N1CCC[C@H]1C(=O)N1CCC[C@H]1C(=O)N1CCC[C@H]1C(=O)N[C@@H](CO)C(=O)NCCOCCOCC(=O)NCCCC[C@H](N)C(=O)N1CCC[C@H]1C#N)C(C)C)[C@@H](C)CC [[D-Ala]GIP(1-30)-exendin-4(31-39)-Ado-Lys-N-ε-(2-(S)-cyano pyrrolidyl)] | – | −20% | – | –
7 | H-YAEGTFISDYSIALDKIHQQDFVNWLLAQKPSSGAPPPS[AEEA][εLys]-{Pyrrolidine(2S-CN)} [[Leu^14]GIP(1-30)-exendin-4(31-39)-Ado-Lys-N-ε-(2-(S)-cyano pyrrolidyl)] | – | – | 82 ± 2 | –
8 | Lys^16 (N-ε-(Aun-Aun-(γ-L-Glu-2-(S)-cyano pyrrolidyl))) GIP(1-30)-exendin(31-39) | – | −3% | – | –
9 | [D-Ala^2, Leu^14]GIP-(1-30)-β-Ala-β-Ala-Lys(α-NH-Pyroglutamoyl)-Trp-Ala-Pro-COOH (peptide 1 Y[dA]EGTFISDYSIALDKIHQQDFVNWLLAQK[βAla][βAla]; peptide 2 [pGlu]KWAP-OH; not fully specified (some residues); printed as [D-Ala^2, Leu^14]GIP-(1-30)-β-Ala-β-Ala-Lys(α-NH-Pyroglutamoyl)-Trp-Ala-Pro-COOH; numbers in words are those of the source; also: linker at chain B 1 to a chain's C-terminus via βAla-βAla) | – | −12^ % | – | 66
